Source: patent US11851440B2, “Modulators of eukaryotic initiation factor 2B, compositions and methods” (Denali Therapeutics Inc., priority 2017, dated 2023)

tested on: ISR pathway (ATF4 translation); test: ATF4 Nano Luciferase reporter integrated stress response (ISR) assay in H4 ATF4-NLuc cells; conditions: Homo sapiens, read-out: Activity (IC50), H4 ATF4-NLuc (clone 17) cells; compound 30 minutes, then 50 um sodium arsenite for 6 hours; luminescence readout

IC50, 1000 to 10000 nM:
O=C(COc1ccc(Cl)cc1)NC12CC(N3CC(C4CCC4)CC3=O)(C1)C2 (stereo not shown) [Example 213]
O=C(COc1ccc(Cl)c(F)c1)NC12CC(N3CCN(CC4CCC4)C3=O)(C1)C2 [Example 215]
O=C(COc1ccc(Cl)c(F)c1)NC12CC(N3CC(COC(F)(F)F)OC3=O)(C1)C2 (stereo not shown) [Example 223]
O=C(CO[C@H]1C[C@@H](OC(F)(F)F)C1)NC12CC(c3nc4cc(Cl)ccc4o3)(C1)C2 [Example 234]

IC50, < 1000 nM:
O=C(CO[C@H]1C[C@@H](OC(F)(F)F)C1)NC12CC(c3noc(-c4ccc(Cl)cc4)n3)(C1)C2 [Example 203]
O=C(CO[C@H]1C[C@@H](OC(F)(F)F)C1)NC12CC(c3nnc(-c4ccc(C(F)(F)F)nc4)o3)(C1)C2 [Example 204]
O=C(CO[C@H]1C[C@@H](OC(F)(F)F)C1)NC12CC(c3nc(-c4ccc(Cl)cc4)no3)(C1)C2 [Example 205]
O=C(COc1ccc(Cl)cc1)NC12CC(N3CC(CC(F)(F)F)CC3=O)(C1)C2 (stereo not shown) [Example 210]
CN1C(=O)N(C23CC(NC(=O)COc4ccc(Cl)cc4)(C2)C3)CC1c1ccc(Cl)cc1 (stereo not shown) [Example 212]
O=C(COc1ccc(Cl)cc1)NC12CC(N3CC(C4CCC4)=CC3=O)(C1)C2 [Example 214]
O=C(COc1ccc(Cl)c(F)c1)NC12CC(N3CC(C4CCC4)OC3=O)(C1)C2 (stereo not shown) [Example 216]
O=C(COc1ccc(Cl)c(F)c1)NC12CC(C3CN(CC4CCC4)C(=O)O3)(C1)C2 (stereo not shown) [Example 220]
O=C(COc1ccc(Cl)c(F)c1)NC12CC(N3CC(COC(F)(F)F)CC3=O)(C1)C2 (stereo not shown) [Example 221]
O=C(COc1ccc(Cl)c(F)c1)NC12CC(N3CCC(COC(F)(F)F)C3=O)(C1)C2 (stereo not shown) [Example 222]
O=C(COc1ccc(Cl)c(F)c1)NC12CC(N3CC(C4CN(CC(F)(F)F)C4)OC3=O)(C1)C2 (stereo not shown) [Example 224]
O=C(NC12CC(c3nnc([C@H]4C[C@@H](OC(F)(F)F)C4)o3)(C1)C2)c1ccn(CCOC(F)(F)F)n1 [Example 225]
O=C(CO[C@H]1C[C@@H](OC(F)(F)F)C1)NC12CC(c3ncc(-c4ccc(Cl)c(F)c4)o3)(C1)C2 [Example 227]
O=C(CO[C@H]1C[C@@H](OC(F)(F)F)C1)NC12CC(c3cn(-c4ccc(Cl)c(F)c4)cn3)(C1)C2 [Example 228]
O=C(NC12CC(n3cnc(-c4ccc(F)c(F)c4)c3)(C1)C2)[C@H]1C[C@@H](OCCOC(F)(F)F)C1 [Example 229]
O=C(CO[C@H]1C[C@@H](n2nccn2)C1)NC12CC(n3cnc(-c4ccc(Cl)c(F)c4)c3)(C1)C2 [Example 230]
O=C(CO[C@H]1C[C@@H](OC(F)(F)F)C1)NC12CC(n3cnc(-c4cnc(C(F)(F)F)nc4)c3)(C1)C2 [Example 231]
O=C(NC12CC(c3nnc(C4CC(OC(F)(F)F)C4)o3)(C1)C2)C(CO)Oc1ccc(Cl)cc1 (stereo not shown) [Example 232]
O=C(CO[C@H]1C[C@@H](OC(F)(F)F)C1)NC12CC(c3nc4ccc(Cl)cc4o3)(C1)C2 [Example 233]
O=C(NC12CC(c3nnc(-c4ccc(Cl)c(F)c4)o3)(C1)C2)[C@H]1CC[C@H](COC(F)(F)F)CC1 [Example 235]
O=C(COc1ccc(Cl)c(F)c1)NC12CC(NC(=O)OC[C@H]3C[C@H](OC(F)(F)F)C3)(C1)C2 [Example 238]
O=C(CO[C@H]1C[C@@H](OC(F)(F)F)C1)NC12CC(c3ncn(-c4ccc(Cl)c(F)c4)n3)(C1)C2 [Example 239]

same assay, conditions: read-out: Activity (IC50); H4 ATF4-NLuc (clone 17) cells; compound 30 minutes, then 50 um sodium arsenite for 6 hours; luminescence readout

IC50, > 10000 nM:
O=C(COc1ccc(Cl)c(F)c1)NC12CC(C3CN(C4CCC4)C(=O)O3)(C1)C2 (stereo not shown) [Example 219]

IC50, < 1000 nM:
O=C(COC[C@H]1C[C@@H](OC(F)(F)F)C1)NC12CC(c3nnc([C@H]4C[C@@H](OC(F)(F)F)C4)o3)(C1)C2 [Example 226]
